In patent US20140171475A1, “ANIMAL ECTOPARASITE-CONTROLLING AGENT” (SUMITOMO CHEMICAL COMPANY, LIMITED, priority 2011, published 2014):
Where two headings read alike, the source gives them in different places.

Columns and labels:
Assay type in all cases: in vivo
[1] = test system: Haemaphysalis longicornis (young ticks) on mouse; test: Dropping application against mouse-infested ticks; settings: topical, 48 h, 0.1% w/v solution, 200 μL dropwise to whole body surface of mouse, 2 days after application, read-out: Mortality
Method: The previous day of a dropping application, 30 test ticks (Haemaphysalis longicornis, young ticks) were deposited on a mouse. Before the dropping application, uninfested ticks were removed.
Any one of the present benzylamide compounds (12), (13), (15), (28), (29), (30), (31), (32), (33), (34), (36), (37) and (38) (5 mg) was dissolved in a mixture (5 mL) of propylene carbonate and diethylene glycol monoethyl ether in equal volume to prepare a 0.1% w/v solution. Said solution (200 μL) was applied dropwise to the whole body surface of a mouse with a pipette. To a control group, the mixture (200 μL) alone was applied. Said application was repeated 3 times per group.
Two (2) days after the application, the number of dead ticks was examined and the mortality was calculated by the following formula:
Mortality (%)=100×(number of dead ticks/infested ticks before dropping application)

[2] = test system: Haemaphysalis longicornis (non-blood-fed young ticks); test: Pesticidal activity on ticks, dry film contact application test; settings: 48 h
Method: Any one of the present benzylamide compounds (12), (13), (15), (28), (29), (30), (31), (32), (33), (34), (37) and (38) (16 μg) was dissolved in acetone (0.2 mL), and into a screw bottle (20 mL volume) this solution was dropwised and capped the bottle. Then the capped-bottle was made rolling so that the inner-surface of the screw bottle was uniformly coated with the solution. The acrew bottle was capped off and allowed to dry up for 2 hours. Into the screw bottle, test ticks (Haemaphysalis longicornis, non-blood-fed young ticks, 10 ticks/group) were added, and capped the bottle. Two (2) days later, the number of dead ticks was examined and the mortality was calculated by the following formula:
Mortality (%)=100×(number of dead ticks/number of ticks tested)

[3] = test system: Haemaphysalis longicornis (young ticks) on mouse; test: Oral administration against mouse-infested ticks; settings: test solution 20 mg/10 mL at 10 mL per 1 kg mouse body weight, 2 days after administration
Method: The previous day of an oral administration, 30 test ticks (Haemaphysalis longicornis, young ticks) were deposited on a mouse. Before the oral administration, uninfested ticks were removed.
(§1) The present benzylamide compound (13) (20 mg) was dissolved in dimethylformamide (680 mg), and thereto a corn oil was added to prepare a test solution (10 mL). Said test solution was orally administered to the mouse at the rate of 10 mL per 1 kg of the body weight of the mouse with a gastric sonde. To a control group, a 7% dimethylformamide/corn oil solution alone was orally administered. Each administration was repeated 3 times per group.
Two (2) days after the administration, the number of dead ticks was examined and the mortality was calculated by the following formula:
Mortality (%)=100×(number of dead ticks/infested ticks before oral administration)

[4] = test system: Ctenocephalides felies fleas on mouse; test: Oral administration against mouse-infested fleas; settings: test solution 20 mg/10 mL at 10 mL per 1 kg mouse body weight, 2 days after flea deposition
Method: as §1, with “group. After the administration, 20 test fleas (Ctenocephalides felies) were deposited on a mouse.” for “group.”
Two (2) days after the deposition, the number of dead fleas was examined and the mortality was calculated by the following formula:
Mortality (%)=100×(number of dead fleas/number of fleas tested)

[5] = test system: Haemaphysalis longicornis (young ticks) on dog (beagle); test: Dropping application against dog-infested ticks; settings: dropping application 20 mg/kg
Method: The previous day of a dropping application, 100 test ticks (Haemaphysalis longicornis, young ticks) were deposited on a dog (beagle). Before the dropping application, infested ticks were counted.
(§2) The present hydrazide compound (13) (1.5 g) was dissolved in diethylene glycol monoethyl ether (6.0 g) to prepare a test solution. Said test solution was directly dropped on the skin of the neck and back of the dog while pushing aside fur thereon at a rate of 0.1 ml per 1 kg of the dog's body weight (dose amount: 20 mg/kg). This is referred to as a test group. On the other hand, diethylene glycol monoethyl ether alone was applied dropwise to a placebo group.
Two (2) days after the application, the number of living ticks, which were infesting the dogs, was examined. When the examination was completed, all infested ticks were removed from the dogs.
(§3) Both of Forty (14) days and 28 days after the application, 100 test ticks (Haemaphysalis longicornis, young ticks) were repeatedly deposited on a dog (beagle) respectively. Two (2) days after the repeated deposition, the number of living ticks, which were infesting the dogs, was examined respectively. When each of the examination was completed, all infested ticks were removed from the dogs.
(§4) The infestation rate and control rate were calculated by the following formulae: […]
(§5) Method of calculating infestation rate and control rate at the initial stage (2 days) after the application:
(§6) Infestation rate (%) at X days after application=(number of living ticks at X days/number of living ticks before application)×100
(§7) Control rate (%) at X days after application {(infestation rate of test group before application infestation rate of test group at X days)/infestation rate of test group before application}×100
(§8) Method of calculating infestation rate and control rate at both 16 days and 30 days after the application:
Infestation rate (%) at X days after application=(number of living ticks at X days/number of living ticks repeatedly deposited)×100 […]

[6] = test system: Haemaphysalis longicornis (young ticks) on dog (beagle); test: Oral administration against dog-infested ticks; settings: oral gelatin capsule 40 mg/kg
Method: The previous day of an oral administration, 100 test ticks (Haemaphysalis longicornis, young ticks) were deposited on a dog (beagle). Before the oral administration, infested ticks were counted.
A gelatin capsule in which the present benzylamide compound (13) was filled into a gelatin capsule so that the amount of the present benzylamide compound […] administered was 40 mg per 1 kg of the dog's body weight was orally administered to the dog conpulsively. This is referred to as a test group. On the other hand, a geratin capsule alone was orally administered to a placebo group.
Two (2) days after the oral administration, the number of living ticks, which were infesting the dogs, was examined. When the examination was completed, all infested ticks were removed from the dogs.
as §4, §5, §6
Control rate (%) at X days after application {(infestation rate of test group before application−infestation rate of test group at X days)/infestation rate of test group before application}×100 […]

[7] = test system: Ctenocephalides felis fleas on cat; test: Dropping application against cat-infested fleas
Method: The previous day of a dropping application, 50 test fleas (Ctenocephalides felis, adult ticks) were deposited on a cat. Before the dropping application, infested flaes were counted.
as §2, with “Each of the” for “The”, “benzylamide” for “hydrazide”, “(specified weight: 0.375 g, 0.75 g and 1.5” for “(1.5”, “cat” for “dog”, “cat's” for “dog's”, “amount: 5 mg/kg, 10 mg/kg and” for “amount:”
Two (2) days after the application, the number of living fleas, which were infesting the cats, was examined. When the examination was completed, all infested fleas were removed from the cats.
as §3, with “14” for “Forty (14)”, “50” for “100”, “fleas (Ctenocephalides felis, adult” for “ticks (Haemaphysalis longicornis, young”, “cat” for “dog (beagle)”
as §4, §5
Infestation rate (%) at X days after application=(number of living fleas at X days/number of living fleas before application)×100
as §7, §8
Infestation rate (%) at X days after application=(number of living fleas at X days/number of living fleas repeatedly deposited)×100
Control rate (%) at X days after application {(infestation rate of placebo group at X days−infestation rate of test group at X days)/infestation rate of placebo group after X days}×100
In addition, if an infestation rate of a test group is higher than a placebo group, then the control rate is deemed to be 0%.

[8] = 16 μg as dry film on inner surface of 20 mL screw bottle, 2 days later, read-out: Mortality

Row | Compound | pest or weed control at 0.1 % strength [1] [%] | mortality at 16 µg/bottle [2, 8] [%] | also measured
1 | CC(=O)NCc1cc(C2=NOC(c3cc(Cl)cc(Cl)c3)(C(F)(F)F)C2)ccc1Cl (stereo not drawn) [(28), N-{2-chloro-[5-(3,5-dichlorophenyl)-5-trifluoromethyl-4,5-dihydroisoxazol-3-yl]benzyl}acetamide] | ≥ 60 | ≥ 90 | 
2 | O=C(CCC(F)(F)F)NCc1cc(C2=NOC(c3cc(Cl)cc(Cl)c3)(C(F)(F)F)C2)ccc1Cl (stereo not drawn) [(29), N-{2-chloro-[5-(3,5-dichlorophenyl)-5-trifluoromethyl-4,5-dihydroisoxazol-3-yl]benzyl}-4,4,4-trifluorobutanamide] | ≥ 60 | ≥ 90 | 
3 | COCC(=O)NCc1cc(C2=NOC(c3cc(Cl)cc(Cl)c3)(C(F)(F)F)C2)ccc1Cl (stereo not drawn) [(30), N-{2-chloro-[5-(3,5-dichlorophenyl)-5-trifluoromethyl-4,5-dihydroisoxazol-3-yl]benzyl}methoxyacetamide] | ≥ 60 | ≥ 90 | 
4 | CC(C)C(=O)NCc1cc(C2=NOC(c3cc(Cl)cc(Cl)c3)(C(F)(F)F)C2)ccc1Cl (stereo not drawn) [(31), N-{2-chloro-[5-(3,5-dichlorophenyl)-5-trifluoromethyl-4,5-dihydroisoxazol-3-yl]benzyl}isobutyramide] | ≥ 60 | ≥ 90 | 
5 | CCCC(=O)NCc1cc(C2=NOC(c3cc(Cl)cc(Cl)c3)(C(F)(F)F)C2)ccc1Cl (stereo not drawn) [(32)] | ≥ 60 | ≥ 90 | 
6 | CC(C)CC(=O)NCc1cc(C2=NOC(c3cc(Cl)cc(Cl)c3)(C(F)(F)F)C2)ccc1Cl (stereo not drawn) [(33), N-{2-chloro-[5-(3,5-dichlorophenyl)-5-trifluoromethyl-4,5-dihydroisoxazol-3-yl]benzyl}isovaleramide] | ≥ 60 | ≥ 90 | 
7 | N#CCC(=O)NCc1cc(C2=NOC(c3cc(Cl)cc(Cl)c3)(C(F)(F)F)C2)ccc1Cl (stereo not drawn) [(34), N-{2-chloro-[5-(3,5-dichlorophenyl)-5-trifluoromethyl-4,5-dihydroisoxazol-3-yl]benzyl}cyanoacetamide] | ≥ 60 | ≥ 90 | 
8 | O=C(NCc1cc(C2=NOC(c3cc(Cl)cc(Cl)c3)(C(F)(F)F)C2)ccc1Cl)C(F)(F)F (stereo not drawn) [(36), N-{2-chloro-[5-(3,5-dichlorophenyl)-5-trifluoromethyl-4,5-dihydroisoxazol-3-yl]benzyl}trifluoroacetamide] | ≥ 60 |  | 
9 | O=C(NCc1cc(C2=NOC(c3cc(Cl)cc(Cl)c3)(C(F)(F)F)C2)ccc1Cl)C1CCC1 (stereo not drawn) [(37), N-{2-chloro-[5-(3,5-dichlorophenyl)-5-trifluoromethyl-4,5-dihydroisoxazol-3-yl]benzyl}cyclobutanecarboxamide] | ≥ 60 | ≥ 90 | 
10 | O=C(NCc1cc(C2=NOC(c3cc(Cl)cc(Cl)c3)(C(F)(F)F)C2)ccc1Cl)C1CCCC1 (stereo not drawn) [(38), N-{2-chloro-[5-(3,5-dichlorophenyl)-5-trifluoromethyl-4,5-dihydroisoxazol-3-yl]benzyl}cyclopentanecarboxamide] | ≥ 60 | ≥ 90 | 
11 | O=C(NCc1cc(C2=NOC(c3cc(Cl)cc(Cl)c3)(C(F)(F)F)C2)ccc1Cl)C1CC1 (stereo not drawn) [Compound (13)] | ≥ 60 |  | Mortality [3]: ≥ 70%; Mortality [4]: ≥ 70%; Tick control rates (%) at X days after the application, X = 2 (days) ([5]; 2 days): 35%; Tick control rates (%) at X days after the application, X = 16 (days) ([5]; 16 days (re-infested at 14 days)): 100%; Tick control rates (%) at X days after the application, X = 30 (days) ([5]; 30 days (re-infested at 28 days)): 100%; Tick control rates (%) at 2 days after the administration [6]: 91%; Flea control rate (%) at X days after the application ([7]; dropping application 5 mg/kg, 2 days): 92%; Flea control rate (%) at X days after the application ([7]; dropping application 5 mg/kg, 16 days): 97%; Flea control rate (%) at X days after the application ([7]; dropping application 5 mg/kg, 30 days): 97%; Flea control rate (%) at X days after the application ([7]; dropping application 10 mg/kg, 2 days): 100%; Flea control rate (%) at X days after the application ([7]; dropping application 10 mg/kg, 16 days): 100%; Flea control rate (%) at X days after the application ([7]; dropping application 10 mg/kg, 30 days): 100%; Flea control rate (%) at X days after the application ([7]; dropping application 20 mg/kg, 2 days): 100%; Flea control rate (%) at X days after the application ([7]; dropping application 20 mg/kg, 16 days): 100%; Flea control rate (%) at X days after the application ([7]; dropping application 20 mg/kg, 30 days): 100%; mortality at 16 µg/bottle [2]: ≥ 90%
